Measurements as given in ChEMBL document CHEMBL1135216, “New 2-(1-adamantylcarbonyl)pyridine and 1-acetyladamantane thiosemicarbazones-thiocarbonohydrazones: cell growth inhibitory, antiviral and antimicrobial activity evaluation” (Bioorg Med Chem Lett, 2002).
Values after ≈ are worked out from the molar mass of the structure shown.

Legend:
HL-60 [1] = assay: Tested for the inhibitory concentration against cell growth of human leukemic cell line HL60; type: functional
HEL [2] = assay: Tested for antiviral activity against human cytomegalovirus (AD-169) in human embryonic lung fibroblasts; type: functional
HL-60 [3] = assay: Tested for the inhibitory concentration against cell growth of HL60 acute myeloid leukemia using MTT assay; type: functional; settings: Homo sapiens
K562 [4] = assay: Tested for the concentration required to reduce the viability of leukemia cells by 50% against cell growth of K562 chronic myeloid leukemia using MTT assay; type: functional; settings: Homo sapiens, read-out: LC50 (the source's name)
Vero [5] = assay: Tested for cytotoxic activity in African green monkey kidney cells (Vero); type: functional; settings: Chlorocebus sabaeus
Vero [6] = assay: Tested for antiviral activity against parainfluenza virus in african green monkey kidney cell (Vero); type: functional; settings: Chlorocebus sabaeus
HeLa [7] = assay: Tested for antiviral activity against coxsackie-B4 virus in human epithelial cell line; type: functional
Vero [8] = assay: Tested for antiviral activity against Punta toro virus in African green monkey kidney cell (Vero); type: functional; settings: Chlorocebus sabaeus
K562 [9] = assay: Tested for the inhibitory concentration against cell growth of human leukemic cell line K562; type: functional
CCRF-CEM [10] = assay: Tested for the concentration required to reduce the viability of leukemia cells by 50% against cell growth of T cell leukemia cell line CCRF-CEM using MTT assay; type: functional; settings: Homo sapiens, read-out: LC50 (the source's name)
HEL [11] = assay: Tested for cytotoxic activity in human embryonic lung fibroblast (HEL); type: functional
Vero [12] = assay: Tested for antiviral activity against Sindbis virus in African green monkey kidney cell (Vero); type: functional; settings: Chlorocebus sabaeus
E6SM [13] = assay: Tested for cytotoxic activity in human embryonic skin muscle fibroblast (E6SM); type: functional; settings: Muscle tissue
CCRF-CEM [14] = assay: Tested for the inhibitory concentration against cell growth of human leukemic cell line CCRF-CEM; type: functional
HuT78 [15] = assay: Tested for the inhibitory concentration against cell growth of HuT78 T lymphoma using MTT assay; type: functional; settings: Homo sapiens
E6SM [16] = assay: Tested for antiviral activity against vaccinia virus in human embryonic skin muscle fibroblast; type: functional; settings: Muscle tissue
Vero [17] = assay: Tested for antiviral activity against Reo-1 virus in African green monkey kidney cell (Vero); type: functional; settings: Chlorocebus sabaeus
MOLT-4 [18] = assay: Tested for the inhibitory concentration against cell growth of Tcell leukemic cell line MOLT-4 using MTT assay; type: functional; settings: Homo sapiens
HuT78 [19] = assay: Tested for the concentration required to reduce the viability of leukemia cells by 50% against cell growth of HuT78 T lymphoma using MTT assay; type: functional; settings: Homo sapiens, read-out: LC50 (the source's name)
Vero [20] = assay: Tested for antiviral activity against coxsackie B-4 virus in African green monkey kidney cell (Vero); type: functional; settings: Chlorocebus sabaeus
RPMI-8226 [21] = assay: Tested for the concentration required to reduce the viability of leukemia cells by 50% against cell growth of RPMI8226 multiple myeloma using MTT assay; type: functional; settings: Homo sapiens
HEL [22] = assay: Tested for antiviral activity against thymidine kinase deficient Varicella zoster virus in human embryonic lung fibroblasts; type: functional
MT4 [23] = assay: Tested for effective concentration required to protect MT-4 cells against the cytopathicity of HIV-2(ROD); type: functional, cell-based; settings: Homo sapiens
HL-60 [24] = assay: Tested for the concentration required to reduce the viability of leukemia cells by 50% against cell growth of HL60 acute myeloid leukemia using MTT assay; type: functional; settings: Homo sapiens, read-out: LC50 (the source's name)
Staphylococcus aureus = assay: Tested for the antimicrobial activity against Staphylococcus aureus ATCC 6538; type: functional
HeLa [25] = assay: The compound was tested for antiviral activity against VSV-virus in human epithelial cells; type: functional
MT4 [26] = assay: (§1) Tested for effective concentration required to protect MT-4 cells against the cytopathicity of HIV-1(IIIB); type: functional; settings: Homo sapiens, read-out: LC50 (the source's name)
MOLT-4 [27] = assay: Tested for the concentration required to reduce the viability of leukemia cells by 50% against cell growth of T cell leukemia cell line MOLT-4 using MTT assay; type: functional; settings: Homo sapiens, read-out: LC50 (the source's name)
E6SM [28] = assay: Tested for antiviral activity against herpes simplex virus type 1(KOS) in E6SM cell line(human embryonic skin-muscle fibroblasts); type: functional
[29] = system: Staphylococcus epidermidis; assay: Tested for the antimicrobial activity against Staphylococcus epidermidis ATCC 12228; type: functional
E6SM [30] = assay: Antiviral activity against thymidine kinase-deficient (TK-HSV-2G) virus in E6SM cell line(human embryonic skin-muscle fibroblasts); type: functional
CCRF-CEM [31] = assay: Tested for the inhibitory concentration against cell growth of Tcell leukemic cell line CCRF-CEM using MTT assay; type: functional; settings: Homo sapiens
MOLT-4 [32] = assay: Tested for the inhibitory concentration against cell growth of human leukemic cell line MOLT-4; type: functional
HeLa [33] = assay: Tested for cytotoxic activity in human epithelial cell line (HeLa); type: functional
MT4 [34] = assay: Tested for cytotoxic concentration required to reduce the viability of MT-4 cells by 50%; type: functional; settings: Homo sapiens
E6SM [35] = assay: Antiviral activity against thymidine kinase-deficient (TK-HSV-1)virus in E6SM cell line(human embryonic skin-muscle fibroblasts); type: functional
[36] = (§2) Tested for the antimicrobial activity against Staphylococcus hominis ATCC 27844; type: functional
Escherichia coli = assay: Tested for the antimicrobial activity against Escherichia coli ATCC 25922; type: functional
HuT78 [37] = assay: Tested for the inhibitory concentration against cell growth of human leukemic cell line HuT78; type: functional
RPMI-8226 [38] = assay: Tested for the inhibitory concentration against cell growth of […] multiple myeloma using MTT assay; type: functional; settings: Homo sapiens
HEL [39] = assay: (§3) Tested for antiviral activity against thymidine kinase wild type Varicella zoster virus in human embryonic lung fibroblast; type: functional
E6SM [40] = assay: Tested for antiviral activity against VSV-virus in human embryonic skin muscle fibroblasts; type: functional; settings: Muscle tissue
Klebsiella pneumoniae = assay: Tested for the antimicrobial activity against Klebsiella pneumoniae ATCC 13883; type: functional
RPMI-8226 [41] = assay: Tested for the inhibitory concentration against cell growth of human leukemic cell line RPMI8226; type: functional
K562 [42] = assay: Tested for the inhibitory concentration against cell growth of K562 chronic myeloid leukemia using MTT assay; type: functional; settings: Homo sapiens
E6SM [43] = assay: Tested for antiviral activity against thymidine kinase-deficient (TK-HSV-2G) virus in E6SM cell line(human embryonic skin-muscle fibroblasts); type: functional
Staphylococcus hominis = assay: as §2; type: functional
E6SM [44] = assay: The compound was tested for antiviral activity against thymidine kinase-deficient (TK-HSV-1)virus in E6SM cell line(human embryonic skin-muscle fibroblasts); type: functional
MT4 [45] = assay: as §1; type: functional, cell-based; settings: Homo sapiens
E6SM [46] = assay: as §3; type: functional
[47] = read-out: LC50 (the source's name)

Compound: S=C(N/N=C(/c1ccccn1)C12CC3CC(CC(C3)C1)C2)NNC(=S)c1ccc(Cl)cc1
- GI50 (HL-60 [1]): 4.1 µM
- MIC (HEL [2]): > 5 µg/mL
- TGI (HL-60 [3]): 9.5 µM
- CC50 (K562 [4]): 100 µM
- MCC (Vero [5]): 80 µg/mL
- MIC (Vero [6]): > 16 µg/mL
- MIC (HeLa [7]): > 3.2 µg/mL
- MIC (Vero [8]): > 16 µg/mL
- GI50 (K562 [9]): 100 µM
- CC50 (CCRF-CEM [10]): 100 µM
- MCC (HEL [11]): 5 µg/mL
- MIC (Vero [12]): > 16 µg/mL
- MCC (E6SM [13]): 80 µg/mL
- GI50 (CCRF-CEM [14]): 76 µM
- TGI (HuT78 [15]): 100 µM
- MIC (E6SM [16]): > 16 µg/mL
- MIC (Vero [17]): > 16 µg/mL
- TGI (MOLT-4 [18]): 100 µM
- CC50 (HuT78 [19]): 100 µM
- MIC (Vero [20]): 9.6 µg/mL (≈ 19.8 µM)
- CC50 (RPMI-8226 [21]; [47]): 100 µM
- MIC (HEL [22]): > 2 µg/mL
- EC50 (MT4 [23]): > 3 µM
- CC50 (HL-60 [24]): 85.5 µM
- MIC (Staphylococcus aureus): 1000 µg/mL (≈ 2070 µM)
- MIC (HeLa [25]): > 3.2 µg/mL
- EC50 (MT4 [26]): > 3 µM
- CC50 (MOLT-4 [27]): 100 µM
- MIC (E6SM [28]): > 16 µg/mL
- MIC [29]: 1000 µg/mL (≈ 2070 µM)
- MIC (E6SM [30]): > 16 µg/mL
- TGI (CCRF-CEM [31]): 100 µM
- GI50 (MOLT-4 [32]): 100 µM
- MCC (HeLa [33]): > 16 µg/mL
- CC50 (MT4 [34]): 2.8 µM
- MIC (E6SM [35]): > 16 µg/mL
- MIC [36]: 1000 µg/mL (≈ 2070 µM)
- MIC (Escherichia coli): > 2000 µg/mL
- GI50 (HuT78 [37]): 8 µM
- TGI (RPMI-8226 [38]): 68.3 µM
- MIC (HEL [39]): > 2 µg/mL
- MIC (E6SM [40]): > 16 µg/mL
- MIC (Klebsiella pneumoniae): > 2000 µg/mL
- GI50 (RPMI-8226 [41]): 6.7 µM
- TGI (K562 [42]): 100 µM

Compound: N/C(S)=N\N=C(\c1ccccn1)C12CC3CC(CC(C3)C1)C2
- GI50 (HL-60 [1]): 51.1 µM
- MIC (HEL [2]): > 5 µg/mL
- TGI (HL-60 [3]): 100 µM
- CC50 (K562 [4]): 100 µM
- MCC (Vero [5]): 16 µg/mL
- MIC (Vero [6]): > 3.2 µg/mL
- MIC (HeLa [7]): 240 µg/mL (≈ 763 µM)
- MIC (Vero [8]): > 3.2 µg/mL
- CC50 (CCRF-CEM [10]): 100 µM
- MCC (HEL [11]): > 20 µg/mL
- MIC (Vero [12]): > 3.2 µg/mL
- MCC (E6SM [13]): > 400 µg/mL
- GI50 (CCRF-CEM [14]): 100 µM
- MIC (E6SM [16]): > 400 µg/mL
- MIC (Vero [17]): > 3.2 µg/mL
- CC50 (HuT78 [19]): 100 µM
- MIC (Vero [20]): > 3.2 µg/mL
- CC50 (RPMI-8226 [21]): 100 µM
- MIC (HEL [22]): > 20 µg/mL
- CC50 (HL-60 [24]): 100 µM
- MIC (Staphylococcus aureus): > 3180 µg/mL
- MIC (E6SM [43]): > 400 µg/mL
- MIC (HeLa [25]): > 400 µg/mL
- CC50 (MOLT-4 [27]): 100 µM
- CC50 (E6SM [28]): > 400 µg/mL
- MIC [29]: > 3180 µg/mL
- GI50 (MOLT-4 [32]): 6.4 µM
- MCC (HeLa [33]): > 400 µg/mL
- CC50 (MT4 [34]; [47]): > 400 µM
- MIC (Staphylococcus hominis): > 3180 µg/mL
- MIC (Escherichia coli): > 3180 µg/mL
- GI50 (HuT78 [37]): 2.4 µM
- CC50 (E6SM [44]): > 400 µg/mL
- TGI (RPMI-8226 [38]): 100 µM
- EC50 (MT4 [45]): > 400 µM
- MIC (E6SM [46]): > 20 µg/mL
- MIC (E6SM [40]): > 400 µg/mL
- MIC (Klebsiella pneumoniae): > 3180 µg/mL
- GI50 (RPMI-8226 [41]): 97.9 µM
